Measurements published in PMC11092195, “Selective Detection of Active Extracellular Granzyme A by Using a Novel Fluorescent Immunoprobe with Application to Inflammatory Diseases” (ACS Pharmacology & Translational Science, 2024).
Counter-ions that a name gives are not always drawn.

Biological target: T1, hGzmK (human GzmK) (Homo sapiens, UniProt P49863)
T1 construct: commercial, Enzo Life Sciences
T1 sequence (P49863 27-264): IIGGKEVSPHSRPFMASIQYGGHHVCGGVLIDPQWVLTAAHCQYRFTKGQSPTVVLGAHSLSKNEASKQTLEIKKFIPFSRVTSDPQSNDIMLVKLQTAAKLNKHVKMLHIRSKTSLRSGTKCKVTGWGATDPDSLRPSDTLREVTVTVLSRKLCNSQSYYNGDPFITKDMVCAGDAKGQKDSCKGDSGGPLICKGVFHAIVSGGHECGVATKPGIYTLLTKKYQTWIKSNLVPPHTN
Assay: thioester hydrolysis with DTNB, used to normalise enzyme units
Assay type: biochemical
Details: Tris-HCl pH 8.5, 37 °C

NCCCC[C@H](NC(=O)OCc1ccccc1)C(=O)SCc1ccccc1 [Nα-CBZ-L-Lysine thiobenzyl ester hydrochloride]
thioester hydrolysis with DTNB, used to normalise enzyme units: activity of the different trypsin-like proteases was equated using a common substrate
